Active and inactive are the calls of the source.
Legend:
Fatty acid synthase [1] = target: T1, Fatty acid synthase (Homo sapiens, UniProt P49327); test: inhibition of human FAS-TE enzyme activity – biochemical, endpoint fluorescence intensity, uHTS hits, dose response (AID 624327); assay type: functional;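 note: fluorescence from hydrolysis of an O-methyl fluorescein acyl ester substrate by the enzyme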
Fatty acid synthase [2] = target: T1, Fatty acid synthase; test: inhibition of human FAS-TE enzyme activity – biochemical, kinetic fluorescence intensity, dose response (AID 624326); assay type: functional;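 note: rate of fluorescence rise from hydrolysis of a fluorogenic O-methyl fluorescein ester substrate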
[3] = target: Luciferin 4-monooxygenase (Photinus pyralis, UniProt P08659); test: inhibition of purified Photinus pyralis luciferase – biochemical, luminescence, dose response (AID 1891)
[4] = Luminescence Cell-Based Dose Confirmation HTS to Identify Inhibitors of Platelet Dense Granule Release. [Related pubchem assays: 1663 (Primary HTS), 1678 (Summary of Project)]; assay type: functional
Genome polyprotein = Genome polyprotein (dengue virus type 2, UniProt P29990); test: flavivirus cap methylation enzyme inhibition – biochemical, confirmation dose response, primary screen (AID 588689); assay type: functional
[5] = target: Mitogen-activated protein kinase 10 (Homo sapiens, UniProt P53779); test: Dose response biochemical screening assay for inhibitors of c-Jun N-Terminal Kinase 3 (JNK3). [Related pubchem assays: 746 ]
Chain of Mitogen-activated protein kinase 10 (P53779 whole entry): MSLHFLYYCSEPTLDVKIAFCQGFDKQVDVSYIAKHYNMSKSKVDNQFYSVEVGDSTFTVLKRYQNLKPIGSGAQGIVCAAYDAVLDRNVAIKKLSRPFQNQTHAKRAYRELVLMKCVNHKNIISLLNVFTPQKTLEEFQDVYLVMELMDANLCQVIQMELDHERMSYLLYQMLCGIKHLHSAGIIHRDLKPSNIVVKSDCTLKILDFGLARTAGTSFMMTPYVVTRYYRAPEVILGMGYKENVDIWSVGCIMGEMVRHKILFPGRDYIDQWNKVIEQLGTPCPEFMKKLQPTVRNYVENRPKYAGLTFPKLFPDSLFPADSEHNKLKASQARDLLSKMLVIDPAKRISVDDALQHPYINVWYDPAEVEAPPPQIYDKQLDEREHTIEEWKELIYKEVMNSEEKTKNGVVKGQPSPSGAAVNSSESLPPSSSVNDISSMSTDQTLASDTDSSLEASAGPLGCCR

Hexokinase HKDC1 = target: T2, Hexokinase HKDC1 (Homo sapiens, UniProt Q2TB90); test: inhibition of HKDC1 glucose phosphorylation – biochemical, W721R variant, dose response (AID 504729); assay type: functional
T2 sequence (Q2TB90 whole entry): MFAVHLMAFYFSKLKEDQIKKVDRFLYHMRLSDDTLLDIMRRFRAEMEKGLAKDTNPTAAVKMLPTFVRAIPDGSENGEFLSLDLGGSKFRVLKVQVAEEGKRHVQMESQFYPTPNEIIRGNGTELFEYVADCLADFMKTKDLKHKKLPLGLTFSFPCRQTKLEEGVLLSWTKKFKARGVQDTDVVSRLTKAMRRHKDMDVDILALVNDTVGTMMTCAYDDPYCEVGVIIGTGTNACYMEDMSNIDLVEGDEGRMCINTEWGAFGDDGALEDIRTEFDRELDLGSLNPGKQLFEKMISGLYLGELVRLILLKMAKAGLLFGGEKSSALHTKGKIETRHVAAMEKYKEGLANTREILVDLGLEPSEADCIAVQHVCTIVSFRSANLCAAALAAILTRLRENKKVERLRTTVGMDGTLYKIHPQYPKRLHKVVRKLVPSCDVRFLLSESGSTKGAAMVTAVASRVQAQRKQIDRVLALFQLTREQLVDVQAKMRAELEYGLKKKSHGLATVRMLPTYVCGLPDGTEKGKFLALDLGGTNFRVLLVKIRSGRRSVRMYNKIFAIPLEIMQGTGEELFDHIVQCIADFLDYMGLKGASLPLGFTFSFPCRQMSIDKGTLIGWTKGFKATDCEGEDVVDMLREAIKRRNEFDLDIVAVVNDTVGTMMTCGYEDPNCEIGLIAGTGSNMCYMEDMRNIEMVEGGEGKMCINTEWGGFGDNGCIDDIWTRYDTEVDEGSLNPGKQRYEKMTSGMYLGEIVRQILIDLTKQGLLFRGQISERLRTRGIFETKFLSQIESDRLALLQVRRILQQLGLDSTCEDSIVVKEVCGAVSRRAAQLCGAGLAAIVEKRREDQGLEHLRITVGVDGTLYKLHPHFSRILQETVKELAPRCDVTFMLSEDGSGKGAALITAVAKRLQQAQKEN

Cytochrome P450 2C19 = Cytochrome P450 2C19 (Homo sapiens, UniProt P33261); test: Cytochrome panel assay with activity outcomes. Panel member name: p450-cyp2c19 Compounds with AC50 equal or less than 10 uM are considered active; assay type: functional; settings: read-out: AC50
Chain of Cytochrome P450 2C19 (P33261 whole entry): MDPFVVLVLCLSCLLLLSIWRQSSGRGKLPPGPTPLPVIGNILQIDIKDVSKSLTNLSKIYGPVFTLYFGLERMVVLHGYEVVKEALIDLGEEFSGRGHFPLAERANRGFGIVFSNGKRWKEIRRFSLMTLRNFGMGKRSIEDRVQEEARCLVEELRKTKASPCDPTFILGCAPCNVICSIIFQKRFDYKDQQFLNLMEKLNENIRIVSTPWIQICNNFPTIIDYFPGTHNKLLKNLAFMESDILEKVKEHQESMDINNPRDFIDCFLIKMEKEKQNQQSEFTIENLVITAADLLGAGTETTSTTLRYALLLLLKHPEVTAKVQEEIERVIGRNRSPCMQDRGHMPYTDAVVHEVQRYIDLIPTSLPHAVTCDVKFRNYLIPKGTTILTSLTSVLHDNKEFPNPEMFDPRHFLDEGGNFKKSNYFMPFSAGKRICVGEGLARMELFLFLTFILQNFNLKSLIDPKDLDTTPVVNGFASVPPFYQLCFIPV

Cytochrome P450 2C9 [6] = target: T3, Cytochrome P450 2C9 (Homo sapiens, UniProt P11712)
T3 sequence (P11712 whole entry): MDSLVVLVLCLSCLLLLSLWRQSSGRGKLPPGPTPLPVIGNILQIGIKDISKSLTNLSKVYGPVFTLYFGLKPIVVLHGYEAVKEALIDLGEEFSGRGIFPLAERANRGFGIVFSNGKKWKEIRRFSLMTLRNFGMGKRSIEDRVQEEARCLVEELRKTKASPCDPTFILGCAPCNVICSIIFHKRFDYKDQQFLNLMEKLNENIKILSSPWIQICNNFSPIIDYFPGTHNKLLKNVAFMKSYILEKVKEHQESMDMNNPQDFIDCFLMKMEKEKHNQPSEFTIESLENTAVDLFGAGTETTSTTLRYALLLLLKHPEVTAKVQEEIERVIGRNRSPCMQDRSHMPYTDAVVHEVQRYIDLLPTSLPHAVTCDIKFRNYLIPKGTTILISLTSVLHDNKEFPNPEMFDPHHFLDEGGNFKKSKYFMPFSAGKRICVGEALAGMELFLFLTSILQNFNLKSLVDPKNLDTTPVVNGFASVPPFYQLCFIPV

[7] = target: FAD-linked sulfhydryl oxidase ALR (Homo sapiens, UniProt P55789); test: ALR-catalysed DTT oxidation blockers – biochemical, H2O2 detection, luminescence, cherry-pick, dose response (AID 493248)
Chain of FAD-linked sulfhydryl oxidase ALR (P55789 whole entry): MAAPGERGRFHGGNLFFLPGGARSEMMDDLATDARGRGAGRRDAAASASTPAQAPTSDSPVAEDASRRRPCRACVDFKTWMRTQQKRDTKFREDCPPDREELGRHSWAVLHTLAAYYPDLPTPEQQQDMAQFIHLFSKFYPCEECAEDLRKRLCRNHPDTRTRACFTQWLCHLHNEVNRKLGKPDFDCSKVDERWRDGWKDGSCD

HEK293 [8] = test: EBV LMP1 TES2 canonical NF-kB signalling blockers – cell-based, HEK293, luciferase, cherry-pick, dose response (AID 588343); assay type: functional; settings: Homo sapiens
[9] = target: Dual specificity tyrosine-phosphorylation-regulated kinase 1A (Rattus norvegicus, UniProt Q63470); assay type: biochemical, Homo sapiens
Cytochrome P450 1A2 = target: T4, Cytochrome P450 1A2 (Homo sapiens, UniProt P05177);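 note: PubChem cytochrome P450 panel assay, CYP1A2 panel member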
T4 sequence (P05177 whole entry): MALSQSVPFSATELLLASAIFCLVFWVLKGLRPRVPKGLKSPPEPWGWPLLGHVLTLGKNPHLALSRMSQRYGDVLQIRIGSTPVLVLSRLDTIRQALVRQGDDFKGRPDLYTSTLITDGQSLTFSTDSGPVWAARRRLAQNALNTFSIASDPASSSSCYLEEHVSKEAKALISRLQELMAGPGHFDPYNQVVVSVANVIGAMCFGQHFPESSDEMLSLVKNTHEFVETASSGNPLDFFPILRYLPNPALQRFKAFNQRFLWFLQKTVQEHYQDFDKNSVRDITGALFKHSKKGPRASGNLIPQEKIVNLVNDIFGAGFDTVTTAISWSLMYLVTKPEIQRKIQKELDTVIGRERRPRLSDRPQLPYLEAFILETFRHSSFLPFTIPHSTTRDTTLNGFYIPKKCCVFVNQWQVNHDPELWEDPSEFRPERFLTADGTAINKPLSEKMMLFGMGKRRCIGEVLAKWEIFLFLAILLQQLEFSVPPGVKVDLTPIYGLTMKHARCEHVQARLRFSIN

Cytochrome P450 3A4 = Cytochrome P450 3A4 (Homo sapiens, UniProt P08684);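 note: CYP3A4 tested as one member of a cytochrome P450 panel screen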
[10] = target: Heat shock protein HSP 90-alpha (Homo sapiens, UniProt P07900); assay type: functional, organism-based
Cytochrome P450 2D6 = Cytochrome P450 2D6 (Homo sapiens, UniProt P10635);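 note: CYP2D6 member of a cytochrome P450 panel assay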
Chain of Cytochrome P450 2D6 (P10635 whole entry): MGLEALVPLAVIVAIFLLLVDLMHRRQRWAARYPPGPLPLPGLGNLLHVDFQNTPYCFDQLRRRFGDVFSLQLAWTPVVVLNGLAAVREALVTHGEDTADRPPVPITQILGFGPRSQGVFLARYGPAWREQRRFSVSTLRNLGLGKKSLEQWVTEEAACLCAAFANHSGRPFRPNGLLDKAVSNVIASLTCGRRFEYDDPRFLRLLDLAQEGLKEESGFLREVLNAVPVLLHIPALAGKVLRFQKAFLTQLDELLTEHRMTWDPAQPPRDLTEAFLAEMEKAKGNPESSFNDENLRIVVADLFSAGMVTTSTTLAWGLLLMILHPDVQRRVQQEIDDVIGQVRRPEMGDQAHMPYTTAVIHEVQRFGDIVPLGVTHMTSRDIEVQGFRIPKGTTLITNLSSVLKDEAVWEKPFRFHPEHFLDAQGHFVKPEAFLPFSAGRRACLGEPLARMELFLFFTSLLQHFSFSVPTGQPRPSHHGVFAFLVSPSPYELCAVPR

Cytochrome P450 2C9 [11] = target: T3, Cytochrome P450 2C9; remark: listed apart in the source
Large T antigen = Large T antigen (Simian virus 40, UniProt P03070); assay type: functional, Betapolyomavirus macacae;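 note: Confirmatory-stage PubChem screen for compounds that inhibit SV40 T antigen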
[12] = target: Induced myeloid leukemia cell differentiation protein Mcl-1 (Homo sapiens, UniProt Q07820); assay type: functional
Chain of Induced myeloid leukemia cell differentiation protein Mcl-1 (Q07820 whole entry): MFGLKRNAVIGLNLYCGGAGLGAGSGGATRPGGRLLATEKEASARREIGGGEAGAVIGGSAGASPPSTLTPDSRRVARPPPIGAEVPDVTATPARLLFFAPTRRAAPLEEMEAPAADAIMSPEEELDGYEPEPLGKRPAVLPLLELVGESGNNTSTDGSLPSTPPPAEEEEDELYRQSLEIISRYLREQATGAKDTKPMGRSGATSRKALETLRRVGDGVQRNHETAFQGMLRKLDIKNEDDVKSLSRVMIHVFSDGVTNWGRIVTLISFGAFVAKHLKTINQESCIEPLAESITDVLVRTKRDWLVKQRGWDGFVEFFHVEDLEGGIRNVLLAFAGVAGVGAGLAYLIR

INS1 = test: INS-1E survival protection against cytokine death – cell-based, luminescence, retest, dose response (AID 449756); assay type: functional; settings: Rattus norvegicus;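 note: cell death triggered by IL-1 beta plus TNF-alpha plus IFN-gamma mixture; protective hits raise ATP signal compared with cytokine alone wells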
[13] = reduction of Shn3 3'UTR-driven luciferase in osteoblasts – cell-based, Clone20 osteoblasts, firefly luciferase, cherry-picked, dose response (AID 624132); assay type: functional;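 note: firefly luciferase luminescence from reporter carrying the Shn3 3'UTR in osteoblasts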
[14] = loss of viability in HepG2 cells – cell-based, CellTiter-Glo, cherry-picked, cytotoxicity control for Shn3 inhibitor project, dose response (AID 624134); assay type: functional
[15] = non-specific 3'UTR reporter inhibition in Clone20-Shn3RL – cell-based, Renilla luciferase, cherry-picked, counter-screen for Shn3 inhibitor project, dose response (AID 624133); assay type: functional
HEK293 [16] = test: cells; settings: Homo sapiens
HEK293 [17] = test: cells; settings: Homo sapiens; remark: listed apart in the source

T1 sequence (P49327 whole entry): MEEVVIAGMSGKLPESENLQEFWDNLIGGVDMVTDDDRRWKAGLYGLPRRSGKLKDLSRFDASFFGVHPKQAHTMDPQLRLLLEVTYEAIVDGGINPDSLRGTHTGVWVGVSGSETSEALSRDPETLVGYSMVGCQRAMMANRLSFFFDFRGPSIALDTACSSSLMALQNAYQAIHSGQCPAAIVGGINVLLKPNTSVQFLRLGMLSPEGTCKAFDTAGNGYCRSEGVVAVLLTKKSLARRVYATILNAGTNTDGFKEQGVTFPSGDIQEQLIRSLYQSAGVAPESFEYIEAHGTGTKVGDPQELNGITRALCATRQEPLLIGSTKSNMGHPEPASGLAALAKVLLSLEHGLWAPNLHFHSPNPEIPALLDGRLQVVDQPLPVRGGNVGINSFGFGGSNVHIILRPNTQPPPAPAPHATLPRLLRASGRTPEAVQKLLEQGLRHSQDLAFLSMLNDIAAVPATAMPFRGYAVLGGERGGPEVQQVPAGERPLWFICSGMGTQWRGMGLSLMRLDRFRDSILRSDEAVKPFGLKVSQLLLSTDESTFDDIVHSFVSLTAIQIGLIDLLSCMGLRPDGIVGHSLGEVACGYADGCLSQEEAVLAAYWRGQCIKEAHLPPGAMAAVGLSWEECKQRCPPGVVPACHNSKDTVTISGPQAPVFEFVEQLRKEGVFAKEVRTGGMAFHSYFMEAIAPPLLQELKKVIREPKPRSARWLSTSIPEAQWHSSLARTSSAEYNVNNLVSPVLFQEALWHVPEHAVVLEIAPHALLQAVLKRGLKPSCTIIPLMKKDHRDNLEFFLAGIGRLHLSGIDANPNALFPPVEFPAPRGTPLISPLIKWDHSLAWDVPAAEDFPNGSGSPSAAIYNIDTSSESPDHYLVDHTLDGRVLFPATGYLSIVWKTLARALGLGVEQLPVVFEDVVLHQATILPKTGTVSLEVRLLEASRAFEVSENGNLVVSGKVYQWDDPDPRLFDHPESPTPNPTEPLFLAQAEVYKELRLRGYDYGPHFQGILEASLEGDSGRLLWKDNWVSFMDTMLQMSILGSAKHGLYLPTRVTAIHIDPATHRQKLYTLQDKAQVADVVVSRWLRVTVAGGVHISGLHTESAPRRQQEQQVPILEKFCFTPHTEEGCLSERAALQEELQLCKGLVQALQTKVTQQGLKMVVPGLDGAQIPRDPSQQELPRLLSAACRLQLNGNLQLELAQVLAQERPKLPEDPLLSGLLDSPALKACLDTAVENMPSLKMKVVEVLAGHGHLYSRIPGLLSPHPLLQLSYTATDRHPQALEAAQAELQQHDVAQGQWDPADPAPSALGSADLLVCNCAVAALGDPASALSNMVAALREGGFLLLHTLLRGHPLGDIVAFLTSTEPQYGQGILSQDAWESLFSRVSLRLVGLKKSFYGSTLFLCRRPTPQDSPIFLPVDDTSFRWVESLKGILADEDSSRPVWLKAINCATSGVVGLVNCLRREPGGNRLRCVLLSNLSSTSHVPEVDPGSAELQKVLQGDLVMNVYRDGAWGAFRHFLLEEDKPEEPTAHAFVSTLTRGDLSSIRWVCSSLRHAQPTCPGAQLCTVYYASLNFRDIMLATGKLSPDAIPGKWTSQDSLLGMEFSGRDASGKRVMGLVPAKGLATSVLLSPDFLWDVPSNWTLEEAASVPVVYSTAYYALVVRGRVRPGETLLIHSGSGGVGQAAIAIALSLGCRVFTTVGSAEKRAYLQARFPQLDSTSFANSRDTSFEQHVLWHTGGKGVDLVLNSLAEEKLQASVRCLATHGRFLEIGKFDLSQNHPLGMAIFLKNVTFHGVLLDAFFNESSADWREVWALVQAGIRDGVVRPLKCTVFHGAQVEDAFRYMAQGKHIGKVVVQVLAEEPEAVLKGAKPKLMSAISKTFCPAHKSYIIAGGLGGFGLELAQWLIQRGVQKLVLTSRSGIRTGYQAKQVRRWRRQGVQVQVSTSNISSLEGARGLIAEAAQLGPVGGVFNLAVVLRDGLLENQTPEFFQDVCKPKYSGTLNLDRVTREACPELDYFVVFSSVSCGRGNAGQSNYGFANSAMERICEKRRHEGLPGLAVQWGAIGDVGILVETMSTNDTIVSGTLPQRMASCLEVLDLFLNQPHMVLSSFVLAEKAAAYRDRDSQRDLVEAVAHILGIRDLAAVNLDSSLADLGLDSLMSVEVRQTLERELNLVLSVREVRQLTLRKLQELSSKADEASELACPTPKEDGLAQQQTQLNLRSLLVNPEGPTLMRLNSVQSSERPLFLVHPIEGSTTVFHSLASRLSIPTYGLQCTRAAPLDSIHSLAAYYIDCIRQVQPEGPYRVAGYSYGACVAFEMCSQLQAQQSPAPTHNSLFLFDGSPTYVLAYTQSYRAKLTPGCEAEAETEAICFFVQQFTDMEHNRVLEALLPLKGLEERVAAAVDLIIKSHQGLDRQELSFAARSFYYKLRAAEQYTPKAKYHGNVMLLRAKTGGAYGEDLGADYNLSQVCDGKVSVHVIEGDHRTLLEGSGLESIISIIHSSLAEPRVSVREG

## O=[N+]([O-])c1ccc(NC(S)=NCCc2ccccc2)cc1
Fatty acid synthase [1]
  IC50: 24.7 µM (inactive)
Fatty acid synthase [2]
  IC50: 15 µM (active)

## O=C1c2ccccc2C(=O)N1OS(=O)(=O)c1ccc(F)cc1
[3]
  EC50: > 112 µM (not active)
[4]
  EC50: > 56.1 µM (not active)
Genome polyprotein
  IC50: > 100 µM (active)
Fatty acid synthase [1]
  IC50: 5.85 µM (active)
Fatty acid synthase [2]
  IC50: 3.91 µM (active)

## CCc1cc(=O)oc2cc(C)cc(OC(=O)c3ccco3)c12
[5]
  IC50: > 93.1 µM (not active)

## COc1ccc(C(=O)N/C(=C\c2ccc([N+](=O)[O-])cc2)C(=O)NC(CCSC)C(=O)O)cc1 (stereo unspecified)
Fatty acid synthase [1]
  IC50: 7.76 µM (active)
Fatty acid synthase [2]
  IC50: 5.76 µM (active)

## CCCc1nc2oc3c(OC)ncnc3c2c2c1COC(C)(C)C2
Hexokinase HKDC1
  IC50: 23 µM (inactive)

## COc1ccc(C2=NN(CN3C(=O)C(=O)c4ccccc43)C(c3cccc([N+](=O)[O-])c3)C2)cc1 (stereo unspecified)
Fatty acid synthase [1]
  IC50: 12.4 µM (active)
Fatty acid synthase [2]
  IC50: 13 µM (active)

## COc1cccc(OCC(=O)Nc2ccccc2C(N)=O)c1
[5]
  IC50: 55.2 µM (not active)

## CCCc1nc2c(c(=O)c3ccccc3n2C)c(=O)n1-c1ccc(F)cc1
Hexokinase HKDC1
  IC50: 6.43 µM (active)

## C[C@@]12CC[C@@H]3c4ccc(O)cc4CC[C@H]3[C@H]1C[C@@H](O)[C@H]2O
Cytochrome P450 2C19
  AC50: 7.94 µM (inconclusive)
Cytochrome P450 2C9 [6]
  AC50: inconclusive

## COc1ccc(CNC(=O)/C=C/c2cc([N+](=O)[O-])ccc2OC(F)F)cc1
Fatty acid synthase [1]
  IC50: 1.17 µM (active)
Fatty acid synthase [2]
  IC50: 1.37 µM (active)

## CC(=O)Nc1nc(C)c(-c2csc(Nc3ccc(O)cc3)n2)s1
[5]
  IC50: > 93.1 µM (not active)
[7]
  AC50: 0.17 µM (active)
HEK293 [8]
  AC50: 3.85 µM (active)
[9]
  AC50: 0.988 µM (active)

## CCn1c(COc2ccccc2)nnc1SCC(=O)Nc1cc(OC)ccc1OC
Cytochrome P450 1A2
  AC50: 25.1 µM (inconclusive)
Cytochrome P450 2C9 [6]
  AC50: inconclusive

## Cc1ccc(NC(=O)c2sc3ncnc(O)c3c2C)c(C)c1
Cytochrome P450 2C19
  AC50: 14.1 µM (inconclusive)
Cytochrome P450 1A2
  AC50: 14.1 µM (inconclusive)
Cytochrome P450 3A4
  AC50: 15.8 µM (inconclusive)
Cytochrome P450 2C9 [6]
  AC50: inconclusive

## Cc1cc(NC(=O)COC(=O)c2[nH]nc3ccccc23)no1
[5]
  IC50: 62.7 µM (not active)

## CCN(CC)N=Nc1[nH]nc2nc(C)cc(C)c12
[10]
  AC50: 2.42 µM (active)
Cytochrome P450 2D6
  AC50: 12.6 µM (inconclusive)
Cytochrome P450 2C9 [11]
  AC50: 17.8 µM (inconclusive)

## CCN(CC)c1ccc(NC(=O)c2cnn(CC)c2)cc1
Large T antigen
  IC50: 6.73 µM (active)
[7]
  AC50: 0.215 µM (active)
Cytochrome P450 2C9 [6]
  AC50: inconclusive

## CC(=O)c1cc(C#N)c(SCc2ccccn2)nc1C
[12]
  IC50: 5.73 µM (not active)

## O=C(O)CCC(=O)NCCc1c(/C=C2/C(=O)NC(=S)N(Cc3ccc(F)cc3)C2=O)[nH]c2ccccc12
Large T antigen
  IC50: 55.4 µM (active)
[12]
  IC50: 1.42 µM (active)
Genome polyprotein
  IC50: > 100 µM (active)

## Cc1cc2cc(CCNC(=O)c3ccc(S(=O)(=O)N4CCOCC4)cc3)c(O)nc2cc1C
Hexokinase HKDC1
  IC50: 11.1 µM (active)

## O=C(CCCn1c(=O)[nH]c2cc(Cl)ccc2c1=O)NCC1CCCO1 (stereo unspecified)
[5]
  IC50: > 31 µM (not active)

## COc1ccc(CCNc2cc(N3CCN(C(=O)c4ccccc4OC)CC3)ccc2[N+](=O)[O-])cc1OC
INS1
  AC50: 4.67 µM (active)
[13]
  AC50: 2.63 µM (active)
[14]
  AC50: 2.98 µM (active)
[15]
  AC50: 10.5 µM (active)

## CC[C@]1(C(=O)OC)[C@H]2C(=O)N(Cc3ccccc3)C(=O)[C@H]2[C@H]2CN=C(SCc3ccc(C(=O)OC)cc3)N21
HEK293 [16]
  EC50: > 59.6 µM (inactive)
HEK293 [17]
  EC50: > 59.6 µM (inactive)

## Cc1ccc(S(=O)(=O)NCCC(=O)NCc2ccccc2)cc1
Cytochrome P450 2D6
  AC50: 25.1 µM (inconclusive)
Cytochrome P450 1A2
  AC50: 17.8 µM (inconclusive)
Cytochrome P450 3A4
  AC50: 25.1 µM (inconclusive)
Cytochrome P450 2C9 [6]
  AC50: inconclusive

## CSc1nc(N2CCN(Cc3ccc4c(c3)OCO4)CC2)c2ccccc2n1
[13]
  AC50: 24.1 µM (active)
[14]
  AC50: > 70 µM (inactive)

## CCCCCOC(=O)C1=C(C)NC(=O)NC1c1ccc([N+](=O)[O-])cc1 (stereo unspecified)
Fatty acid synthase [1]
  IC50: 9.26 µM (active)
Fatty acid synthase [2]
  IC50: 14.9 µM (active)

From ChEMBL document CHEMBL1201862, “PubChem BioAssay data set” (2004)
